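48-hour exposure; five concentrations; linearly interpolated endpoints. At the GI50, growth is halved. TGI: concentration producing complete growth inhibition.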
Key:
Test in all cases: NCI-60 cell line screen, 48 h
MALME-3M melanoma = test system: MALME-3M melanoma
SK-MEL-28 melanoma = test system: SK-MEL-28 melanoma
T-47D breast = test system: T-47D breast
DU-145 prostate = test system: DU-145 prostate
BT-549 breast = test system: BT-549 breast
NCI-H23 lung = test system: NCI-H23 lung
KM12 colon = test system: KM12 colon
SNB-75 CNS = test system: SNB-75 CNS
SF-268 CNS = test system: SF-268 CNS
LOX IMVI melanoma = test system: LOX IMVI melanoma

Compound | GI50 (MALME-3M melanoma) [µM] | TGI (MALME-3M melanoma) [µM] | GI50 (SK-MEL-28 melanoma) [µM] | TGI (SK-MEL-28 melanoma) [µM] | GI50 (T-47D breast) [µM] | TGI (T-47D breast) [µM] | GI50 (DU-145 prostate) [µM] | TGI (DU-145 prostate) [µM] | GI50 (BT-549 breast) [µM] | TGI (BT-549 breast) [µM] | GI50 (NCI-H23 lung) [µM] | TGI (NCI-H23 lung) [µM] | GI50 (KM12 colon) [µM] | TGI (KM12 colon) [µM] | GI50 (SNB-75 CNS) [µM] | TGI (SNB-75 CNS) [µM] | GI50 (SF-268 CNS) [µM] | TGI (SF-268 CNS) [µM] | GI50 (LOX IMVI melanoma) [µM] | TGI (LOX IMVI melanoma) [µM]
O=C1c2ccc3c4c(ccc(c24)C(=O)N1CCCCO)C(=O)N(CCCCO)C3=O | 0.254 | 1.02 | 2.6 | 10.4 | 2.54 | 7.26 | 2.2 | 6.32 | 4.82 | 17.4 | 1.6 | 5.17 | 2.27 | 10.7 | 3.12 | 13.6 | 2.09 | 11.5 | 1.35 | 3.58
CC/C(=C/c1ccc(OC)cc1)[N+](=O)[O-] | 1.78 | 3.77 | 1.68 | 3.44 | 1.82 | 5.95 | 2.17 | 5.07 | 2.42 | 6.42 | 2.15 | 5.74 | 2.24 | 5.47 | 2.83 | 15 | 3.01 | 10.4 | 1.47 | 2.98
N#Cc1cnn(C(=O)c2nn(-c3ccc(Cl)cc3)cc2O)c1N | 0.926 | 13.6 | 0.63 | 27.3 | 0.294 | 19.1 | 0.57 | 28.4 | 0.287 | 7.17 | 0.371 | 15.1 | 0.374 | 22.2 | 0.248 | 17.8 | 0.439 | 23.8 | 0.434 | 12
COC(=O)C(=O)C(C(=O)C(=O)Nc1cc(C)ccc1C)c1nc2ccccc2[nH]c1=O (stereo not given) | – | > 100 | – | > 100 | – | > 100 | – | > 100 | – | > 100 | – | > 100 | – | > 100 | – | > 100 | – | > 100 | – | > 100
C=C(CN1CCN(c2cc(C(F)(F)F)cc(C(F)(F)F)c2)CC1)c1ccc(C(=O)Nc2ccccc2N)cc1 | 13.8 | 47.9 | 3.68 | 15.9 | 8.97 | > 100 | 5.4 | > 100 | 5.04 | 24.6 | 14.2 | 72.1 | 3.47 | 21.8 | 3.44 | 18.5 | 8.12 | > 100 | 2.34 | > 100
O=C(/C=C/c1ccco1)Nc1ncc(Cc2cc(Cl)ccc2Cl)s1 | 0.0769 | > 100 | 2.13 | > 100 | 0.255 | > 100 | 0.055 | > 41.6 | 0.189 | – | 0.156 | > 100 | 0.0419 | > 100 | 0.0261 | 0.433 | 0.102 | > 100 | 0.0762 | > 100
NP1(Oc2ccc(F)cc2)=NP(N)(Oc2ccc(F)cc2)=NP(Oc2ccc(F)cc2)(Oc2ccc(F)cc2)=N1 (stereo not given) | – | 18.7 | – | 25.2 | – | 7.27 | – | 20.1 | – | 7.44 | – | 23.9 | – | 16.2 | – | 14.5 | – | 26.7 | – | 19.7
CCc1ccc([OH2+])c(C(=O)[O-])c1.CCc1ccc([OH2+])c(C(=O)[O-])c1.CCc1ccc([OH2+])c(C(=O)[O-])c1.CCc1ccc([OH2+])c(C(=O)[O-])c1.[Cu+2].[Cu+2] | > 100 | > 100 | > 100 | > 100 | > 100 | > 100 | 70.1 | > 100 | 78.6 | > 100 | > 100 | > 100 | 53.6 | > 100 | 40.6 | > 89.3 | > 100 | > 100 | > 100 | > 100
O=C(O)CCCCCNCc1cc2cc3c(cc2c2cc(OCc4ccccc4)ccc12)OCO3 | 1.88 | 3.57 | 1.78 | 3.33 | 2.06 | 5.04 | 2.37 | 5.47 | 6.68 | 24.1 | – | – | 1.63 | 3.19 | 2.96 | 8.81 | – | – | 1.62 | 3.1
NS(=O)(=O)c1cccc(Nc2cc(-c3ccc(F)cc3)[nH]n2)c1 | > 25 | > 25 | > 25 | > 25 | > 23.3 | > 25 | 16.2 | > 25 | > 23.9 | > 25 | > 25 | > 25 | 8.22 | > 25 | > 15.5 | > 25 | 18.6 | > 25 | 20.7 | > 25
COc1cc(/C=N/NC(=O)c2cnn3c2NC(c2ccccc2)C3)ccc1OCc1ccccc1 (stereo not given) | 0.616 | 3.7 | 1.36 | 5.11 | 1.22 | > 37.5 | 1.47 | 6.4 | 0.571 | 4.85 | 1.2 | 6.12 | 0.412 | 2.35 | 0.595 | 2.24 | 2.42 | 16.7 | 0.573 | 2.79
CN(N=O)c1ccc(/C=C/c2ccnc3ccccc23)cc1 | – | > 100 | – | > 100 | – | > 100 | – | > 100 | – | > 100 | – | > 100 | – | > 100 | – | > 100 | – | > 100 | – | > 100
COc1cc(C(=O)/C=C/c2c[nH]c3ccccc23)cc(OC)c1OC | 0.0381 | 18 | 0.494 | 41.9 | 0.0393 | 18.4 | 0.0296 | 30 | 0.0288 | 4.16 | 0.0602 | 45.4 | 0.0217 | 11.2 | 0.0264 | 37.2 | 0.0735 | 26.3 | 0.0508 | 16.1

Source: PubChem BioAssay (NCI)
